From patent US20230118955A1 (priority 2020, published 2023)
Marks after values point to notes of the source that are not given here.

Columns and labels:
3CLpro protease = assay type: biochemical, SARS-CoV
trypsin = assay: Trypsin (surrogate for TMPRSS2) cleavage of Site S2' peptide (Peptide 2, Acetyl-SKPSKR-pNA) after incubation with MGO; assay type: biochemical; settings: 8 mM MGO, 400 μM peptide 2, 5 nM trypsin
recombinant human furin = assay: Furin cleavage of Site S1 peptide (Peptide 1, Acetyl-SPRRAR-pNA) after incubation with MGO; assay type: biochemical; settings: 8 mM MGO, 400 μM peptide 1, 5 nM furin
SARS-CoV-1 = assay type: cell-based
SARS-CoV-2 = assay type: cell-based

SMILES | inhibition of 3CLpro protease activity (cleavage of pNA substrate) (3CLpro protease) | also measured
O=c1cc(-c2ccc(O)c(O)c2)oc2cc(O)cc(O)c12 [luteolin] | inhibit activity of 3CLpro protease | 
O=c1c(O)c(-c2ccc(O)c(O)c2)oc2cc(O)cc(O)c12 [quercetin] | inhibit activity of 3CLpro protease | 
COc1ccc([C@@H]2CC(=O)c3c(O)cc(O[C@@H]4O[C@H](CO[C@@H]5O[C@@H](C)[C@H](O)[C@@H](O)[C@H]5O)[C@@H](O)[C@H](O)[C@H]4O)cc3O2)cc1O [hesperidin] | inhibit activity of 3CLpro protease | 
CC(=O)C=O [MGO, methylglyoxal] |  | reduction in pNA liberated (activation of peptide 2 by trypsin) (trypsin; incubation 4 h): 88%; reduction in pNA liberated (activation of peptide 2 by trypsin) (trypsin; incubation time 0): 21%; reduction in pNA liberated (activation of peptide 1 by furin) (recombinant human furin; incubation 3 h): 97%; reduction in pNA liberated (activation of peptide 1 by furin) (recombinant human furin; incubation 4 h): 97%; reduction in pNA liberated (activation of peptide 1 by furin) (recombinant human furin; incubation time 0): 90%
O=C(O)/C=C/c1ccc(O)cc1 [p-coumaric acid] | inhibit activity of 3CLpro protease | 
O=C1C[C@@H](c2ccccc2)Oc2cc(O)cc(O)c21 [pinocembrin] | inhibit activity of 3CLpro protease | 
O=C1c2c(O)cc(O)cc2O[C@H](c2ccccc2)[C@H]1O [pinobanksin] | inhibit activity of 3CLpro protease | 
O=c1c(O)c(-c2ccc(O)cc2)oc2cc(O)cc(O)c12 [kaempferol] | inhibit activity of 3CLpro protease | 
O=c1c(O)c(-c2ccccc2)oc2cc(O)cc(O)c12 [galangin] | inhibit activity of 3CLpro protease | 
CCO [EtOH, ethanol] |  | LRV (log10 reduction of virus compared to the virus control) (SARS-CoV-1): 2.8 log10; Virus (CCID50/0.1 mL) (SARS-CoV-1): 1.5 ± 0.2 CCID50/0.1 mL; LRV (log10 reduction of virus compared to the virus control) (SARS-CoV-2): 3.9 log10; Virus (CCID50/0.1 mL) (SARS-CoV-2): <0.7**** CCID50/0.1 mL
O=C(O)C(O)Cc1ccccc1 (stereo not drawn) [3-phenyllactic acid] | inhibit activity of 3CLpro protease | 
